In paper PMC4636305, “Identification of Small-Molecule Inhibitors against Meso-2, 6-Diaminopimelate Dehydrogenase from Porphyromonas gingivalis” (PLoS ONE, 2015):
≈ marks a conversion by molar mass, not a printed value. Entries after “also recorded” stand apart in the source; their conditions may differ. Where two headings read alike, the source gives them in different places. Residues, ends and D or L forms follow the SMILES beside them.

Tests used:
[1] = target: Meso-diaminopimelate dehydrogenase (m-Ddh) from P. gingivalis (Porphyromonas gingivalis, UniProt Q7MW40); assay: m-Ddh kinetic assay, inhibitor screening and IC50 determination; assay type: biochemical; settings: for IC50: 400 μM m-DAP, 180 μM NADP+, pH 10.5, 25°C, three independent experiments; for IC50 with addition of Triton-X 100 versus without: .01% Triton-X 100, test for aggregation-based inhibition; for inhibition at 3000 µM: read-out: % inhibition of enzymatic activity at 3 mM
Protocol: (§1) The enzymatic activity for m-Ddh was determined by observing the standard oxidative deamination reaction of the substrate meso-diaminopimelate. The reaction contained 400 μM of meso-diaminopimelate (Sigma-Aldrich, St. Louis, MO), 180 μM NADP^+ (Sigma-Aldrich, St. Louis, MO), 200 mM glycine-KCl-KOH buffer (pH 10.5), and the enzyme in a final volume of 1 ml. The reaction was initiated with the addition of NADP^+. The reaction velocity was calculated from the increase in absorbance at 340 nm, spectrophotometrically monitored at 25°C, where one unit of enzyme was defined as the amount of enzyme catalyzing the formation of […] of NADPH per min.
A range of concentrations (0–3 mM) of each small-molecule compound inhibitor were added to the standard reaction and the percent of m-Ddh enzymatic inhibition was measured by the kinetic assay described above. Percent inhibition was determined by the formula: (rateofreactionnoinhibitor)−(rateofreactioninhibitor)/rateofreactionnoinhibitor×100. The concentration of each compound inhibitor which caused 50% enzymatic inhibition (IC50) was calculated using PRISM v6.04 software (Graphpad, San Diego, CA) from three independent experiments.

P. gingivalis [2] = assay: MIC, broth microdilution; assay type: cell-based, Porphyromonas gingivalis
Protocol: Minimal Inhibitory Concentration (MIC) assays were performed using a broth microdilution method. P. gingivalis cells were grown overnight and the following day diluted 1/10 into fresh medium. Cells were allowed to grow to mid-log phase (OD600 ≈ 0.5). Compounds were serially diluted in 96-well microtiter plates (Jet Biofil, Genesee Scientific, San Diego, CA) and an aliquot of the cell suspension was added to each well with the compound inhibitor sample for a final cell count of 1×10^5 CFU/ml. Plates were incubated for five days at 37°C in anaerobic conditions.

P. gingivalis [3] = assay: MBC, plating of MIC wells without visible growth; assay type: cell-based, Porphyromonas gingivalis; settings: for MBC: Porphyromonas gingivalis, 168 h, plated 7 days, anaerobic, n = 3
Protocol: Samples were plated on tryptic soy agar plates supplemented with 5% sheep blood (Becton, Dickinson, Franklin Lakes, NJ) and incubated at 37°C in anaerobic conditions for 7 days.

S. sanguinis = assay: MIC, broth microdilution; assay type: cell-based, Streptococcus sanguinis; settings: for MIC: Streptococcus sanguinis, S. sanguinis, lacks the target m-Ddh, n = 3; for S. sanguinis MIC relative to MIC of P. gingivalis: selectivity
P. gingivalis [4] = assay: Time-kill assay; assay type: cell-based, Porphyromonas gingivalis; settings: for reduction of viable P. gingivalis cell count: 5× MIC
Protocol: P. gingivalis cells were grown overnight and the following day diluted 1/10 into fresh medium. Cells were allowed to grow to mid-log phase (OD600 ≈ 0.5) then diluted to a final cell suspension of 1×10^5 CFU/ml. Compounds were added at a concentration of 5x the MIC determined from the 96-well broth microdilution assay. Samples were taken at different time intervals (0, 0.25, 0.5, 1, 2, 3, 4, 6 and 24 hours) and plated on tryptic soy agar plates supplemented with 5% sheep blood (Becton, Dickinson, Franklin Lakes, NJ) using an automated Eddy Jet spiral plater (Neutec Group, Farmingdale, NY). Plates were incubated at 37°C in anaerobic conditions for 7 days.

P. gingivalis cells = assay: SEM analysis of compound exposed cells; assay type: cell-based, Porphyromonas gingivalis; settings: treated P. gingivalis cells; Compounds 4 and 5 at 5x MIC
Protocol: Untreated or treated P. gingivalis cells were deposited onto a 0.1 μm disposable Millipore filter to remove medium, and samples were fixed using 2% glutaraldehyde in 0.1 M sodium cacodylate buffer (pH 7.4) for 30 min, followed by 1% osmium tetroxide in 0.1 M sodium cacodylate buffer (pH 7.4). Samples embedded in the filters were then dehydrated in ethanol followed by hexamethyldisilazane (HMDS) and allowed to air-dry. The filters were sectioned and mounted onto stubs and coated with gold for three minutes (EMS– 550 Automated Sputter Coater, Electron Microscopy Sciences, Hatfield, PA). Micrographs were taken at 30,000× total magnification using a Zeiss EVO 50 XVP scanning electron microscope (Carl Zeiss, Peabody, MA).

m-Ddh [5] = assay: Determination of kinetic parameters of m-Ddh; assay type: biochemical, Porphyromonas gingivalis; settings: pH 10.5, 25°C, other substrate held at 0.5 mM; for Km: read-out: apparent Km
Protocol: as §1
Initial velocity measurements for m-DAP and NADP^+ were determined at 25°C in a similar reaction for the standard oxidative deamination reaction assay. The reaction contained 200 mM glycine-KCl-KOH buffer (pH 10.5) with m-DAP as the variable substrate with concentrations between 0.001 mM and 1 mM and NADP^+ held constant at a saturating concentration of 0.5 mM or NADP^+ as the variable substrate with concentrations between 0.01 mM to 1 mM and m-DAP held constant at 0.5 mM. Km and Vmax values were determined through non-linear fitting. All assays were performed in triplicates and non-linear fitting Michaelis-Menten data were calculated from Graphpad Prism version 5.04 (Graphpad, San Diego, CA).

m-Ddh [6] = system: m-Ddh; parameters: method as in PMID 21616177; settings: C. thermocellum m-Ddh; cited from earlier work
[7] = compound at 3 mM, initial screen
[8] = Porphyromonas gingivalis, 120 h, five days, 37°C, anaerobic, n = 3

Chain of Meso-diaminopimelate dehydrogenase (m-Ddh) from P. gingivalis (Q7MW40 entry or part of it): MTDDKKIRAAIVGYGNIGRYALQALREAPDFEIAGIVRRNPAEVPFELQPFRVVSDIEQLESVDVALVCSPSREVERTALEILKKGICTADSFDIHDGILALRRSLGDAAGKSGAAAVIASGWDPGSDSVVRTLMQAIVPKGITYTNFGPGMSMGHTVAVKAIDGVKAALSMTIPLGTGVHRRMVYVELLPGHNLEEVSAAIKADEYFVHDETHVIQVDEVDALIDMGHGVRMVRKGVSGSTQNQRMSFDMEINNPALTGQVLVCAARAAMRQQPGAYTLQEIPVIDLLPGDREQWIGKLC

COc1ccc(S(=O)(=O)Nc2nc3ccccc3nc2Nc2cccc(C(=O)O)c2)cc1 [Compound 4]
IC50 [1]: 157 ± 26 µM
IC50 with addition of Triton-X 100 versus without [1]: no difference in activity
inhibition at 3000 µM [1, 7]: ≥ 90%
MIC (P. gingivalis [2]; [8]): 250 µM (≈ 113 µg/mL)
MBC to MIC ratio (P. gingivalis [3]): less than 4
MBC (P. gingivalis [3]): 374 µM (≈ 168 µg/mL)
MIC (S. sanguinis): 1740 µM (≈ 784 µg/mL)
S. sanguinis MIC relative to MIC of P. gingivalis (S. sanguinis): 7 ×
P. gingivalis cell count (P. gingivalis [4]; 5x MIC, after six hours of treatment): maintained a low cell count
reduction of viable P. gingivalis cell count (P. gingivalis [4]; within 6 h of exposure): 2 log10 CFU /ml
cellular structure by SEM (P. gingivalis cells): alteration of the cellular structure

Cc1cc(S(=O)(=O)Nc2cc(SCCC(=O)O)c(O)c3ccccc23)ccc1F [Compound 5]
IC50 [1]: 310 ± 23 µM
IC50 with addition of Triton-X 100 versus without [1]: no difference in activity
inhibition at 3000 µM [1, 7]: ≥ 90%
MIC (P. gingivalis [2]; [8]): 167 µM (≈ 72.9 µg/mL)
MIC (P. gingivalis [2]; five days, 37°C, anaerobic, n = 3): 167 µM (≈ 72.7 µg/mL)
MBC to MIC ratio (P. gingivalis [3]): less than 4
MBC (P. gingivalis [3]): 254 µM (≈ 111 µg/mL)
MIC (S. sanguinis): 305 µM (≈ 133 µg/mL)
S. sanguinis MIC relative to MIC of P. gingivalis (S. sanguinis): almost double
P. gingivalis cell viability (P. gingivalis [4]; 5x MIC, after two hours of exposure): no viable cell count; also recorded: complete elimination
reduction of viable P. gingivalis cell count (P. gingivalis [4]; after 2 h of exposure): 5 log10 CFU/ml
cellular structure by SEM (P. gingivalis cells): alteration of the cellular structure

O=C(O)CCC(=O)Nc1ccc(S(=O)(=O)Nc2cnc3ccccc3n2)cc1 [Compound 6]
IC50 [1]: 356 ± 16 µM
IC50 with addition of Triton-X 100 versus without [1]: no difference in activity
inhibition at 3000 µM [1, 7]: ≥ 90%
MIC (P. gingivalis [2]; [8]): 2820 µM (≈ 1130 µg/mL)
MIC (P. gingivalis [2]; Porphyromonas gingivalis, bound stated): > 2000 µM
MIC (S. sanguinis): 3310 µM (≈ 1330 µg/mL)

CCC[C@@H]1CN(c2nc(C)ccc2C(=O)O)C[C@H]1C(=O)O [Compound 7]
IC50 [1]: 1160 ± 175 µM
inhibition at 3000 µM [1, 7]: ≥ 90%

NCc1[nH]cc(CCC(=O)O)c1CC(=O)O [Compound 8]
% inhibition of enzymatic activity at 3 mM [1, 7]: No inhibition at 3 mM

O=C(O)c1sccc1S(=O)(=O)Nc1cccc2[nH]ncc12 [Compound 9]
% inhibition of enzymatic activity at 3 mM [1, 7]: No inhibition at 3 mM

N[C@@H](CC(=O)O)C(=O)N[C@@H](Cc1ccccc1)C(=O)O [Compound 10] (H-Asp-Phe-OH)
inhibition at 3000 µM [1]: 2%

O=C(O)CCCC(O)(O)C(=O)O [Compound 11]
inhibition at 3000 µM [1, 7]: 13%

O=C(O)c1cccc(S(=O)(=O)Nc2ccnc(Sc3ccccn3)c2)c1 [Compound 12]
% inhibition of enzymatic activity at 3 mM [1, 7]: No inhibition at 3 mM

O=C(O)c1cccc(NS(=O)(=O)c2ccc(O)c(C(=O)O)c2)c1 [Compound 13]
inhibition at 3000 µM [1, 7]: 6%

Cc1n[nH]c(C)c1S(=O)(=O)Nc1cccc(NS(=O)(=O)c2ccccc2)c1 [Compound 14]
inhibition at 3000 µM [1, 7]: 17%

NC(=O)c1ccc[n+]([C@@H]2O[C@H](COP(=O)([O-])OP(=O)(O)OC[C@H]3O[C@@H](n4cnc5c(N)ncnc54)[C@H](OP(=O)(O)O)[C@@H]3O)[C@@H](O)[C@H]2O)c1 [NADP^+]
Vmax (m-Ddh [5]): 91.95 nmol/s
Km (m-Ddh [5]): 60 µM
Km (m-Ddh [6]): 90 µM

CC1(C)S[C@@H]2[C@H](NC(=O)[C@H](N)c3ccccc3)C(=O)N2[C@H]1C(=O)O [ampicillin, reference compound]
cellular structure by SEM (P. gingivalis cells): altered morphology

N[C@H](CCC[C@H](N)C(=O)O)C(=O)O [m-DAP, meso-diaminopimelate]
Vmax (m-Ddh [5]): 130.1 nmol/s
Km (m-Ddh [5]): 370 µM
